Measurements reported in ChEMBL document CHEMBL3507680, “University of Dundee, Gates Library screen for HepG2 cell viability”.

Experiment: Human HepG2 cell viability assay in 384 well format
Format: toxicity, cell-based
Set-up: dose 125 nL, time 70.5 hour; concentration not given beside the values
Details: HepG2 cells, read-out: Inhibition

Row | SMILES | cytotoxicity at 70.5 h [%]
1 | CSCCC(=O)N1CC[C@@H](N2CCN(c3ccccc3F)CC2)[C@H](O)C1 | 33.8
2 | Cc1cc2nc(C(C)C)cc(N3CCN(c4ccc(O)cc4)CC3)n2n1 | -1.87
3 | COc1cc2c(cc1OC)CN(Cc1ncccc1C(=O)O)CC2 | -13.5
4 | C[C@@H]1CN(Cc2ccncc2)C[C@]1(C)O | -18
5 | Cc1ccc(-c2ccnc(N3CCC4(CCO4)CC3)n2)c(C)n1 | -6.98
6 | CCc1nc2c(c(NCc3nc(-c4cccnc4)no3)n1)CCNCC2 | -2.89
7 | COCC1(CNC(=O)Nc2cc(F)ccc2OC)CCCC1 | 6.61
8 | CC(C)C[C@H]1CN(c2nc3c(cc2C(N)=O)CCC3)CC[C@@]1(C)O | -7.33
9 | CN1C[C@@H](n2cnc(-c3ccccc3)c2-c2nccn2C)C[C@H]1C(=O)O | -11.9
10 | Cc1nn(C)cc1-c1ccnc(N(C)Cc2cnn(C)c2)n1 | -2.26
11 | CCOc1ccc(-c2ccc3c(c2)OCO3)cc1C(N)=O | 5.58
12 | COc1cccc(OC2CN(C(=O)c3c(C)noc3C)C2)c1 | -9.88
13 | O=C(CO)N1CC[C@@H](N2CCN(c3ccccc3F)CC2)[C@H](O)C1 | 6.39
14 | CN(Cc1cccc(OCCO)c1)Cc1cccc2ncccc12 | 19.3
15 | CN1CCN(Cc2cnn(-c3ccc(F)cc3)c2)[C@H]2CS(=O)(=O)C[C@H]21 | -4.08
16 | c1csc(CN(Cc2ccsc2)CC2CCCO2)n1 (stereo unspecified) | -1.84
17 | CCN(Cc1ccncc1)C(=O)C1COc2c(cccc2OC)C1 (stereo unspecified) | 6.05
18 | O=C1NCC2(CCCN(C(=O)c3ccc4c(c3)OCCO4)CC2)O1 (stereo unspecified) | -2.63
19 | COC(=O)N1CCN(C(=O)c2ccc(C)c(N3CCNC3=O)c2)CC1 | 14
20 | CC(C)(O)CCc1cccc(C(=O)NCc2cnn3cccnc23)c1 | -4.68
21 | Cn1cc(CN2CCCC(CCc3ccc(F)c(F)c3)C2)cn1 (stereo unspecified) | -2.93
22 | Cc1cc(C)n2nc(C(=O)N[C@H]3C[C@H]4CN(C)CCN4C3)cc2n1 | -6.02
23 | CC(C)CN1CCCC1c1ccc(C(=O)Nc2cn(C)nn2)s1 (stereo unspecified) | -0.657

Row | SMILES | cytotoxicity at 70.5 h [%]
24 | CCn1ncc(C(=O)N2CCCN(CCCc3ccccc3)CC2)c1C | -2.97
25 | CCCS(=O)(=O)N1CCC2(CC1)CC(=O)N(Cc1cc(F)cc(F)c1)C2 | -7.19
26 | C=C(C)COc1ccccc1C(=O)NCCc1cc(O)nc(C)n1 | -11.9
27 | CN(Cc1n[nH]c2c1CCCC2)c1nc(C2CC2)nc2c1CCNCC2 | -1.06
28 | O=C(c1cnc(C2CC2)nc1O)N1CCN(Cc2ccccc2F)CC1 | 0.38
29 | COCCN1CCCC2(CCN(c3nccnc3N(C)C)C2)C1=O (stereo unspecified) | -14.9
30 | O=C(c1ccccc1C(F)(F)F)N1CC[C@@H](N2CCC(O)CC2)[C@H](O)C1 | -1.82
31 | CCc1nc(C)c(CN2CCN(c3ncnc4c(C)csc34)CC2)[nH]1 | -14
32 | CC(C)[C@H]1COC(=O)N1Cc1nccn1C1CC1 | -3.35
33 | Cc1ccc(F)c(NC(=O)CCC(=O)N(C)Cc2cc(C3CC3)[nH]n2)c1 | -8.19
34 | COc1ccc([C@@H]2CN(C(=O)CCn3cccn3)C[C@H]2NC(C)=O)cc1 | 6.76
35 | Cc1cc(N2CCC(C(=O)O)(n3ccc(C(C)C)n3)CC2)nc(N)n1 | 6.37
36 | OC1(CN2CCCCC2)CCN(c2ccc(C(F)(F)F)cn2)C1 (stereo unspecified) | -4.17
37 | CN(C)C1CCCN(C(=O)CCc2csc(N)n2)CC1 (stereo unspecified) | 1.01
38 | Cc1ccc2oc(CN3CCC(C(=O)O)(n4ccnc4)CC3)c(C)c2c1 | -16.8
39 | CSc1ccc(C(C(=O)O)N2CCC(C(=O)N3CCCC3)CC2)cc1 (stereo unspecified) | -4.74
40 | COCCNS(=O)(=O)c1cccc2c1CN(C(=O)c1cc(C)on1)CC2 | -2.31
41 | COc1cc(C)ccc1S(=O)(=O)N1CC[C@](C)(O)[C@H](C)C1 | -5.97
42 | Cc1cc(-c2nc(-c3ccccn3)nn2C2CCN(C)CC2)nc(C)n1 | -3.28
43 | Cc1c(CN2CCCC(C(=O)c3ccccc3)C2)cc(C#N)n1C (stereo unspecified) | -4.58
44 | O=C(CC1CCc2ccccc21)NC1(C(=O)O)CCOCC1 (stereo unspecified) | -14
45 | CC(NC(=O)CCCc1ccc(Cl)cc1)c1nnn[nH]1 (stereo unspecified) | -11.1
46 | Cc1cccc(C(C(=O)N2CC(c3ccccn3)C2)N(C)C)c1 (stereo unspecified) | -3.41

Row | SMILES | cytotoxicity at 70.5 h [%]
47 | CC(O)c1cn(CC2CCN(C(=O)CN(C)C(C)C)CC2)nn1 (stereo unspecified) | -6.36
48 | O=C(c1ccnc(-n2cnnc2)c1)N1CCCC2(CCOC2)C1 (stereo unspecified) | -2.19
49 | COc1cc2cc(C(=O)NC(C)C(=O)O)n(C)c2c(OC)c1OC (stereo unspecified) | -7.07
50 | O=C(C1CC(=O)N(c2ccccc2)C1)N1CCC2(CC1)OCCO2 (stereo unspecified) | 5.21
51 | CCCc1cc(=O)[nH]c(-c2ccccc2CN(C)CCn2cccn2)n1 | 5.03
52 | Cc1ccc(-n2ncc3c2CCCC3N)cc1C (stereo unspecified) | -4
53 | Cc1nc2sccn2c1C(=O)N1CCc2c(nc(N)[nH]c2=O)C1 | -4.21
54 | O=S(=O)(c1cc(F)ccc1F)N1CCCC1c1ccco1 (stereo unspecified) | -6.01
55 | O=c1[nH]c(NC2CCCC2)nc2nccc(-c3cccs3)c12 | -4.19
56 | COCCCn1c(CN2CCCCO2)cnc1S(=O)(=O)C1CCCC1 | -4.4
57 | Cc1noc(-c2ccc(N[C@H]3CCCCNC3=O)nc2)n1 | -1.42
58 | CO[C@@]1(C)C[C@@H](O)C12CCN(C(=O)C1(c3ccccc3F)CC1)CC2 | 9.4
59 | CC(C)CNC(=O)CN(C)S(C)(=O)=O | 0.607
60 | Cc1cc(=O)[nH]c(SC(C)C(=O)N2CCCN(C3CCCC3)CC2)n1 (stereo unspecified) | 6.46
61 | CC(=O)N[C@H]1CN(CC(=O)NCc2ccccc2C)C[C@@H]1C(C)C | -4.45
62 | CCC(NC(=O)C1CCN(S(C)(=O)=O)CC1)c1ccc(OC)cc1 (stereo unspecified) | -4.59
63 | CN(Cc1ccoc1)C(=O)C1CC(=O)N(Cc2ccncc2)C1 (stereo unspecified) | -8.62
64 | Cc1ccc(C(=O)NCCN2CCOCC2)cc1N(C)S(C)(=O)=O | 1.25
65 | Cc1c(C(=O)N(C)C)cccc1N(C)S(C)(=O)=O | 0.872
66 | CC(C)CN1CCC(NCCNc2cccnc2)CC1 | -17.2
67 | C/C=C(\C)CN1C[C@H](c2cccc(OC)c2)[C@@H](N)C1 | -5.71
68 | CCN(CC)C(=O)[C@@H]1C[C@H](N)CN1C(=O)c1cc2c([nH]c1=O)CCC2 | 14.4
69 | CN1CCN(C(=O)C2CN(Cc3cc4ccccc4o3)CCN2)CC1 (stereo unspecified) | -3.72

Row | SMILES | cytotoxicity at 70.5 h [%]
70 | CC(=O)Nn1ccc2c(nnc3c(-c4ccccc4)cnn32)c1=O | -28.5
71 | C[C@@H]1CN(C(=O)CCCN2CCOCC2)CC[C@@]1(O)C1CCC1 | -3.73
72 | Cc1ccc2c(c1)OC(C)(C)CC2NC(=O)C1CCN(S(C)(=O)=O)CC1 (stereo unspecified) | -5.08
73 | O=C(Nc1ccc2c(c1)OCO2)N1CCCC1c1ccco1 (stereo unspecified) | -4.29
74 | Cc1cccc(C(C(=O)NCCCc2nnc3ccccn23)N(C)C)c1 (stereo unspecified) | 20.2
75 | COc1ccc(CNC(=O)CCN2CCOC(C(F)(F)F)C2)cc1 (stereo unspecified) | -7.56
76 | Cc1nc(O)cc(CNC(=O)CC[C@@H]2CCCN3CCCC[C@H]23)n1 | -9.94
77 | NCCO[C@H]1C[C@@H](O)C12CCN(C(=O)CCOc1ccccc1)CC2 | -0.434
78 | COc1cccc2c1OCC(CNC(=O)CSc1ccccn1)C2 (stereo unspecified) | -6.38
79 | COc1ccc(CN(C)c2nccc(-c3cn(C)nc3C)n2)cc1 | 13.2
80 | CCN(Cc1noc(CC(C)C)n1)Cc1ccccc1OCC(=O)O | -2.84
81 | CCc1ccc(NC(=O)C2CCN(C(=O)COC)CC2)cc1 | -9.16
82 | CC1(C)CN(C(=O)CC2CCC2)C[C@]1(C)O | -2.02
83 | COc1ccc(NC(=O)Cn2nc(C)c(C)cc2=O)cc1Cl | 0.971
84 | COCCOC1CCN(C(C(=O)O)c2ccc(F)c(Cl)c2)CC1 (stereo unspecified) | -9.08
85 | Cc1nnsc1C(=O)N1C[C@H]2CC[C@@H]1CN(c1cnccn1)C2 | -5.21
86 | OCC1(Cc2ccc(F)cc2F)CCCN(Cc2ccncc2)C1 (stereo unspecified) | -5.76
87 | COc1cccc2c1OCC(CNC(=O)Cc1c(C)nc(N)nc1C)C2 (stereo unspecified) | -7.12
88 | CC(C)(C)C(=O)NCCNc1cc(N2CCCC2)ncn1 | -8.01
89 | COc1cccc(NC(=O)c2cc3c([nH]c2=O)CCCC3=O)c1 | -8.19
90 | Cc1ccc(OCC(C)NS(C)(=O)=O)cc1C (stereo unspecified) | -3.53
91 | Cc1cc(CN2CCc3nc(C)n(C)c(=O)c3CC2)[nH]n1 | -5.95
92 | COCCn1cnnc1CCNc1cc(C)nc2ccnn12 | -2.09

Row | SMILES | cytotoxicity at 70.5 h [%]
93 | CC(C)(C)n1ncc2c1NC(=O)CC2c1cccc(F)c1 (stereo unspecified) | 3.13
94 | COc1ccc(-c2n[nH]cc2CN(C)CCc2scnc2C)c(F)c1 | 1.84
95 | Cc1nn(C)c2nc(N3CCC(C(O)Cc4ccccc4)CC3)sc12 (stereo unspecified) | -2.11
96 | CCC(CO)N(CC=C(C)C)Cc1ccsc1 (stereo unspecified) | -2.49
97 | COc1ccc(C(C)NC(=O)C2CCN(S(C)(=O)=O)CC2)cc1C (stereo unspecified) | -4.77
98 | CCCn1ncc(C(=O)N2CCCC(OCc3ccccn3)C2)c1C (stereo unspecified) | -4.73
99 | CCc1cc(NCCCC2CCOC2)n2nccc2n1 (stereo unspecified) | -1.93
100 | Fc1ccc(NC2CCCN(Cc3ccncc3)C2)cc1 (stereo unspecified) | 26.1
101 | Cc1nc2c(cc1C(=O)Nc1ccccc1Cl)c(=O)n(C)c(=O)n2C | -9.88
102 | CCS(=O)(=O)N1CCN(c2cc(-n3cnc(C)c3C)nc(C)n2)CC1 | -2.19
103 | CCCNC(=O)C(C)Oc1ccc(F)cc1 (stereo unspecified) | -12.9
104 | COc1ccc(OC)c(NC(=O)c2cc3c([nH]c2=O)CCCC3=O)c1 | -4.78
105 | CC(C)COc1ccccc1CN(C)C(=O)c1cc(=O)[nH]c(=O)[nH]1 | -8.79
106 | CC(C1CCN(Cc2cnn(C)c2C2CC2)CC1)N(C)C (stereo unspecified) | -7.09
107 | Cc1nc(CCN(C)C(=O)CN2CCCCCC2)no1 | -9.68
108 | CCN(Cc1ccc(S(C)(=O)=O)cc1)Cc1nc(COC)no1 | -11.1
109 | c1cnn(CC2CN(Cc3csc(C4CCCCC4)n3)CCO2)c1 (stereo unspecified) | -0.469
110 | CCNc1cc2c(nn1)CCN(C(=O)c1c(C)noc1C)C2 | -2.94
111 | c1ccc(-c2nc(CN3CCOC(Cn4cncn4)C3)cs2)cc1 (stereo unspecified) | -3.05
